Measurements published in paper PMC3966878, “Crystal Structure of ORF210 from E. coli O157:H1 Phage CBA120 (TSP1), a Putative Tailspike Protein” (PLoS ONE, 2014).

Legend:
[1] = target: T1, TSP1 (ORF210) from CBA120 phage (Escherichia phage Cba120, UniProt G3M189); assay: X-ray crystal structure (soak), […] Å; format: binding; conditions: crystal soak in mother liquor with 37% saturated sugar, Tris-HCl pH 7.0-7.6
T1 construct: full length, 770 residues plus C-terminal 6xHis tag; codon-optimized gene expressed in E. coli BL21; homotrimer, 82 kDa monomer; one Zn2+ per trimer
T1 sequence (G3M189 1-770): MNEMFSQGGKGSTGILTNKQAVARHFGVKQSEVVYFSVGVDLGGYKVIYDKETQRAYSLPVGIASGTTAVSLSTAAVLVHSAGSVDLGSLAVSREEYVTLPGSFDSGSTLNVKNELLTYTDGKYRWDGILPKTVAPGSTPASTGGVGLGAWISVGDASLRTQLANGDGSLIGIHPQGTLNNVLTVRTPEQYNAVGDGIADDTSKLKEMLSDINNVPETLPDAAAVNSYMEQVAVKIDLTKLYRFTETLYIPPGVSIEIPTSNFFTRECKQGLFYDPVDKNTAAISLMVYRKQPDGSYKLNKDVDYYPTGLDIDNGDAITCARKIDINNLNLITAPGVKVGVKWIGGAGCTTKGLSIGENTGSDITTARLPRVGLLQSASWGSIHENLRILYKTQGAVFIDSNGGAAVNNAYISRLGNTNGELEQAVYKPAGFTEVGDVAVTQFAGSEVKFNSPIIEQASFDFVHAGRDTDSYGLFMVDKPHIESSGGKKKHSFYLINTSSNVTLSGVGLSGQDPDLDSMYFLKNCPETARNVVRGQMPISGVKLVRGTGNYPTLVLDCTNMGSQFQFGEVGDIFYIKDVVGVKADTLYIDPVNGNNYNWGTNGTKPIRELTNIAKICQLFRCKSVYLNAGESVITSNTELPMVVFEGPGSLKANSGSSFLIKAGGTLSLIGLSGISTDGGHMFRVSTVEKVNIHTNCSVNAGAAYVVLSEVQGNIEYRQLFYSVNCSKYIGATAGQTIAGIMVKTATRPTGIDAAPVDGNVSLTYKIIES

[2] = target: T1, TSP1 (ORF210) from CBA120 phage; assay: X-ray crystal structure (soak), […] Å; format: binding; conditions: crystal soak in mother liquor with 37% saturated sugar, Tris-HCl pH 7.0-7.6; site on the surface of D3, single subunit (Tyr306, Tyr427, Phe443, Ala430)
[3] = target: the molecule itself; assay: SEC; analytical gel filtration, Superose 6, 100 ug TSP1, isocratic in PBS; mass from a standard curve of gel filtration standards
[4] = target: the molecule itself; assay: crystal structure; hanging drop, 0.1 M Tris-HCl pH 7.0-7.6, 16% PEG 1000, room temperature; space group P212121; MAD phasing on Se-Met crystal; 1.8 A

With `OC[C@H]1O[C@@H](O)[C@H](O)[C@@H](O)[C@@H]1O` [glucose] the “X-ray crystal structure (soak), 2.0 Å” value ([1]; site in D3-D4 hole next to D4, single subunit (Glu639, Lys662, Lys615)) was 4OJL for TSP1/glucose complex.

In the case of `OC[C@H]1O[C@@H](O[C@H]2[C@H](O)[C@@H](O)[C@@H](O)O[C@@H]2CO)[C@H](O)[C@@H](O)[C@H]1O` [α-lactose], the “X-ray crystal structure (soak), 2.0 Å” value ([1]; site deep in D3-D4 hole between two subunits (Val579, Lys577, Asp585)) is reported as 4OJO for TSP1/lactose complex.

`OC[C@H]1O[C@H](O[C@H]2[C@H](O)[C@@H](O)[C@@H](O)O[C@@H]2CO)[C@H](O)[C@@H](O)[C@@H]1O` [α-maltose] was tested, and the “X-ray crystal structure (soak), 1.95 Å” value [2] was 4OJP for TSP1/maltose complex.

B1: TSP1 (tailspike protein 1, ORF210) from bacteriophage CBA120, wild-type, with C-terminal 6X-His tag (natural protein, bacteriophage CBA120 (vB_EcoM_CBA120), UniProt G3M189 1-770, looked up)
chain: T1 sequence (G3M189 1-770)
notes: Tailspike protein 1 (TSP1), open reading frame 210 (tsp1) of the phage CBA120 genome, codon-optimised synthetic gene; the encoded 770 amino acid residues followed by six histidines; A construct with an N-terminal 6X-His tag was dropped; the C-terminal tag construct was used for all experiments; also called CBA120 TSP1; wild-type TSP1; source: E. coli BL21 (pBAD24, arabinose induction), purified …
For B1, the “stoichiometry N” value [3] was 3.

B2: Selenomethionine derivative of TSP1 (ORF210) from bacteriophage CBA120, with C-terminal 6X-His tag (natural protein, bacteriophage CBA120 (vB_EcoM_CBA120), UniProt G3M189 1-770, looked up)
chain: T1 sequence (G3M189 1-770)
modifications: selenomethionine in place of methionine
notes: Tailspike protein 1 (TSP1), open reading frame 210 (tsp1) of the phage CBA120 genome, same plasmid pBAD24::tsp1 as m1; the encoded 770 amino acid residues followed by six histidines; also called Se-Met TSP1; SeMet TSP1; source: E. coli B834 (methionine auxotroph, SelenoMet media with 40 mg/L selenomethionine), purified as the wild type; not shown: His6, C-terminal, kept
With B2 the “stoichiometry N” value [4] was 3.
